Experimental data: patent publication US20130252890A1, “6,7-DIHYDRO-5H-BENZO[7]ANNULENE DERIVATIVES, PROCESS FOR PREPARATION THEREOF, PHARMACEUTICAL PREPARATIONS COMPRISING THEM, AND THE USE THEREOF FOR PRODUCTION OF MEDICAMENTS” (BAYER INTELLECTUAL PROPERTY GMBH, priority 2010, published 2013)

biological target: T1, oestrogen receptor (ER) (Homo sapiens, UniProt P03372); assay: Anti-oestrogenic action in MVLN cells (inhibition of estradiol-induced luciferase); assay type: cell-based; conditions: inhibition of estradiol-induced luciferase signal, value of Ex. 44 is a mean value, read-out: Antioestrogenic action in vitro: MVLN transactivation antagonism IC50
T1 construct: These MVLN cells express, along with the functional oestrogen receptor (ER), a reporter construct; endogenous in cells; host or cells: MVLN cells (MCF7 derivative carrying a luciferase reporter construct)
T1 sequence (P03372 1-595): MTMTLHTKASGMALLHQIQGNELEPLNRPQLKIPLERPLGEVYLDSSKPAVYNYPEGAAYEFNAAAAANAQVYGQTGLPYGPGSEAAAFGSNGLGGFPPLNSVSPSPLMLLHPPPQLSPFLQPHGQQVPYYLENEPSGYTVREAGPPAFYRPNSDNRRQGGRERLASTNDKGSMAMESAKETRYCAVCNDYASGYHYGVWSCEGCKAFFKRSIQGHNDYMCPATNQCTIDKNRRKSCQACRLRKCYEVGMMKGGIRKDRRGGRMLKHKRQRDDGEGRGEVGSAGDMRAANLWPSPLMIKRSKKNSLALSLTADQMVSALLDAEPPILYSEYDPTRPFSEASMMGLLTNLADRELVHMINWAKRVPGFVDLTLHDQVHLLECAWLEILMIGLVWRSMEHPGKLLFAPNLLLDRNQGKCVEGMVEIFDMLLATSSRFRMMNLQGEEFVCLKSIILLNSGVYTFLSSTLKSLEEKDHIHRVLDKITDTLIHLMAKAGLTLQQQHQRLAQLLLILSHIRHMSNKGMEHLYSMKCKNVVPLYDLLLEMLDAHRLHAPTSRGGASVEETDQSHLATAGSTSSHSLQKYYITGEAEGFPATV
Procedure, shortened: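 MVLN cells, MCF7 breast cancer derivatives carrying functional ER plus an ER-activated luciferase reporter, were treated with compounds in the presence of estradiol. Anti-oestrogenic activity taken as inhibition of the estradiol-induced luciferase signal.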

IC50 | Structure (SMILES)
22 nM | CN(CCCCCCC1=C(c2ccc(F)cc2F)CCCc2cc(O)ccc21)CCCS(=O)(=O)CCC(F)(F)C(F)(F)F [Example 145, 8-(2,4-Difluorophenyl)-9-[6-(methyl{3-[(3,3,4,4,4-pentafluorobutyl)sulphonyl]propyl}amino)hexyl]-6,7-dihydro-5H-benzo[7]annulen-3-ol]
10 nM | CC(C)(O)CN(CCCCCCC1=C(c2ccc(F)c(F)c2)CCCc2cc(O)ccc21)CCCS(=O)(=O)CCCC(F)(F)C(F)(F)F [Example 29, 8-(3,4-Difluorophenyl)-9-{6-[(2-hydroxy-2-methylpropyl){3-[(4,4,5,5,5-pentafluoropentyl)sulphonyl]propyl}amino]hexyl}-6,7-dihydro-5H-benzo[7]annulen-3-ol]
16 nM | CN(CCCCCCC1=C(c2ccc(F)cc2)CCCc2c1ccc(O)c2F)CCCCS(=O)(=O)CCC(F)(F)F [Example 50, 4-Fluoro-8-(4-fluorophenyl)-9-[6-(methyl{4-[(3,3,3-trifluoropropyl)sulphonyl]butyl}amino)hexyl]-6,7-dihydro-5H-benzo[7]annulen-3-ol]
18 nM | CN(CCCCCCC1=C(c2ccc(F)c(F)c2)CCCc2cc(O)ccc21)CCCS(=O)(=O)CCCCC(F)(F)F [Example 73, 8-(3,4-Difluorophenyl)-9-[6-(methyl{3-[(5,5,5-trifluoropentyl)sulphonyl]propyl}amino)hexyl]-6,7-dihydro-5H-benzo[7]annulen-3-ol]
181 nM | CN(CCCCCCC1=C(c2cc(F)cc(F)c2)CCCc2cc(O)ccc21)CCCS(=O)(=O)CCC(F)(F)F [Example 6, 8-(3,5-Difluorophenyl)-9-[6-(methyl{3-[(3,3,3-trifluoropropyl)sulphonyl]propyl}amino)hexyl]-6,7-dihydro-5H-benzo[7]annulen-3-ol]
19 nM | CN(CCCCCCC1=C(c2cc(F)cc(F)c2)CCCc2cc(O)ccc21)CCCCS(=O)(=O)CCC(F)(F)C(F)(F)F [Example 69, 8-(3,5-Difluorophenyl)-9-[6-(methyl{4-[(3,3,4,4,4-pentafluorobutyl)sulphonyl]butyl}amino)hexyl]-6,7-dihydro-5H-benzo[7]annulen-3-ol]
67 nM | CS(=O)(=O)N(CCCCCCC1=C(c2ccc(F)cc2)CCCc2cc(O)ccc21)CCCCS(=O)(=O)CCCC(F)(F)F [Example 91, N-{6-[8-(4-Fluorophenyl)-3-hydroxy-6,7-dihydro-5H-benzo[7]annulen-9-yl]hexyl}-N-{4-[(4,4,4-trifluorobutyl)sulphonyl]butyl}methanesulphonamide]
6 nM | CN(CCCCCCC1=C(c2ccc(F)cc2F)CCCc2cc(O)ccc21)CCCS(=O)(=O)CCCC(F)(F)C(F)(F)F [Example 128, 8-(2,4-Difluorophenyl)-9-[6-(methyl{3-[(4,4,5,5,5-pentafluoropentyl)sulphonyl]propyl}amino)hexyl]-6,7-dihydro-5H-benzo[7]annulen-3-ol]
29 nM | O=S(=O)(CCCN(CCO)CCCCCCC1=C(c2ccc(F)cc2)CCCc2cc(O)ccc21)CCC(F)(F)F [Example 56, 8-(4-Fluorophenyl)-9-{6-[(2-hydroxyethyl){3-[(3,3,3-trifluoropropyl)sulphonyl]propyl}amino]hexyl}-6,7-dihydro-5H-benzo[7]annulen-3-ol]
26 nM | CN(CCCCCCC1=C(c2ccc(F)c(F)c2)CCCc2cc(O)ccc21)CCCCS(=O)(=O)CCC(F)(F)F [Example 47, 8-(3,4-Difluorophenyl)-9-[6-(methyl{4-[(3,3,3-trifluoropropyl)sulphonyl]butyl}amino)hexyl]-6,7-dihydro-5H-benzo[7]annulen-3-ol]
88 nM | CCN(CCCCCCC1=C(c2ccc(F)c(F)c2)CCCc2cc(O)ccc21)CCCS(=O)(=O)CCC(F)(F)F [Example 30, 8-(3,4-Difluorophenyl)-9-[6-(ethyl{3-[(3,3,3-trifluoropropyl)sulphonyl]propyl}amino)hexyl]-6,7-dihydro-5H-benzo[7]annulen-3-ol]
106 nM | CN(CCCCCCC1=C(c2cc(F)cc(F)c2)CCCc2cc(O)ccc21)CCCCCS(=O)(=O)CCC(F)(F)F [Example 68, 8-(3,5-Difluorophenyl)-9-[6-(methyl{5-[(3,3,3-trifluoropropyl)sulphonyl]pentyl}amino)hexyl]-6,7-dihydro-5H-benzo[7]annulen-3-ol]
521 nM | CN(CCCCCC1=C(c2ccc(F)cc2)CCCc2cc(O)ccc21)CCCCS(=O)(=O)CCC(F)(F)F [Example 52, 8-(4-Fluorophenyl)-9-[5-(methyl{4-[(3,3,3-trifluoropropyl)sulphonyl]butyl}amino)pentyl]-6,7-dihydro-5H-benzo[7]annulen-3-ol]

The remaining lines, values behind:

Structure (SMILES) | IC50
CC(C)(O)CN(CCCCCCC1=C(c2ccc(F)c(F)c2)CCCc2cc(O)ccc21)CCC[S+]([O-])CCC(F)(F)F (stereo not drawn) [Example 26, 8-(3,4-Difluorophenyl)-9-{6-[(2-hydroxy-2-methylpropyl){3-[(3,3,3-trifluoropropyl)sulphinyl]propyl}amino]hexyl}-6,7-dihydro-5H-benzo[7]annulen-3-ol] | 28 nM
CN(CCCCCCC1=C(c2ccc(F)cc2)CCCc2c1ccc(O)c2F)CCC[S+]([O-])CCCC(F)(F)C(F)(F)F (stereo not drawn) [Example 42, 4-Fluoro-8-(4-fluorophenyl)-9-[6-(methyl{3-[(4,4,5,5,5-pentafluoropentyl)sulphinyl]propyl}amino)hexyl]-6,7-dihydro-5H-benzo[7]annulen-3-ol] | 13 nM
O=S(=O)(CCCN(CCO)CCCCCCC1=C(c2ccc(F)cc2)CCCc2cc(O)ccc21)CCCC(F)(F)C(F)(F)F [Example 54, 8-(4-Fluorophenyl)-9-{6-[(2-hydroxyethyl){3-[(4,4,5,5,5-pentafluoropentyl)sulphonyl]propyl}amino]hexyl}-6,7-dihydro-5H-benzo[7]annulen-3-ol] | 27 nM
O=S(=O)(CCCN(CCCCCCC1=C(c2ccc(F)cc2)CCCc2c1ccc(O)c2F)CC(F)F)CCCC(F)(F)C(F)(F)F [Example 64, 9-{6-[(2,2-Difluoroethyl){3-[(4,4,5,5,5-pentafluoropentyl)sulphonyl]propyl}amino]hexyl}-4-fluoro-8-(4-fluorophenyl)-6,7-dihydro-5H-benzo[7]annulen-3-ol] | 86 nM
O=S(=O)(CCCN(CCCCCCC1=C(c2ccc(F)cc2)CCCc2c1ccc(O)c2F)CC(F)(F)F)CCCC(F)(F)C(F)(F)F [Example 84, 4-Fluoro-8-(4-fluorophenyl)-9-{6-[{3-[(4,4,5,5,5-pentafluoropentyl)sulphonyl]propyl}(2,2,2-trifluoroethyl)amino]hexyl}-6,7-dihydro-5H-benzo[7]annulen-3-ol] | 252 nM
O=S(=O)(CCCN(CCCO)CCCCCCC1=C(c2ccc(F)cc2)CCCc2c1ccc(O)c2F)CCC(F)(F)F [Example 62, 4-Fluoro-8-(4-fluorophenyl)-9-{6-[(3-hydroxypropyl){3-[(3,3,3-trifluoropropyl)sulphonyl]propyl}amino]hexyl}-6,7-dihydro-5H-benzo[7]annulen-3-ol] | 84 nM
CC(C)(O)CN(CCCCCCC1=C(c2ccc(F)c(F)c2)CCCc2cc(O)ccc21)CCC[S+]([O-])CCCC(F)(F)C(F)(F)F (stereo not drawn) [Example 28, 8-(3,4-Difluorophenyl)-9-{6-[(2-hydroxy-2-methylpropyl){3-[(4,4,5,5,5-pentafluoropentyl)sulphinyl]propyl}amino]hexyl}-6,7-dihydro-5H-benzo[7]annulen-3-ol] | 9 nM
CN(CCCCCCC1=C(c2ccc(F)cc2)CCCc2cc(O)c(F)cc21)CCCCS(=O)(=O)C1CCC(F)(F)CC1 [Example 144, 9-{6-[{4-[(4,4-Difluorocyclohexyl)sulphonyl]butyl}(methyl)amino]hexyl}-2-fluoro-8-(4-fluorophenyl)-6,7-dihydro-5H-benzo[7]annulen-3-ol] | 10 nM
CN(CCCCCCC1=C(c2cc(F)cc(F)c2)CCCc2cc(O)ccc21)CCC[S+]([O-])CCCC(F)(F)C(F)(F)F (stereo not drawn) [Example 8, 8-(3,5-Difluorophenyl)-9-[6-(methyl{3-[(4,4,5,5,5-pentafluoropentyl)sulphinyl]propyl}amino)hexyl]-6,7-dihydro-5H-benzo[7]annulen-3-ol] | 12 nM
O=S(=O)(CCCN(CCO)CCCCCCC1=C(c2ccc(F)cc2)CCCc2c1ccc(O)c2F)CCC(F)(F)F [Example 61, 4-Fluoro-8-(4-fluorophenyl)-9-{6-[(2-hydroxyethyl){3-[(3,3,3-trifluoropropyl)sulphonyl]propyl}amino]hexyl}-6,7-dihydro-5H-benzo[7]annulen-3-ol] | 24 nM
CC(C)(C)N(CCCCCCC1=C(c2ccc(F)cc2)CCCc2c1ccc(O)c2F)CCCS(=O)(=O)CCCC(F)(F)C(F)(F)F [Example 63, 9-[6-(tert-Butyl{3-[(4,4,5,5,5-pentafluoropentyl)sulphonyl]propyl}amino)hexyl]-4-fluoro-8-(4-fluorophenyl)-6,7-dihydro-5H-benzo[7]annulen-3-ol] | 95 nM
